Source: patent US20170355743A1, “INSULIN RECEPTOR PARTIAL AGONISTS” (Merck Sharp & Dohme Corp., priority 2014, published 2017)

System: C57BL/6NTac mice
Assay: Intraperitoneal Insulin Tolerance Test (IP-ITT)
Type: in vivo
Conditions: intraperitoneal injection, two doses per compound (Table 16), lean male C57BL/6NTac mice, 30 to 360 minutes after dose
Method: Groups of N=6-8 animals per group were randomized by weight (average about 30 grams). Two days prior to study, the mice were conditioned to dosing with an intraperitoneal injection of 0.9% Sodium Chloride solution at 5 ml/kg dosing volume. On the morning of the study, food was removed two or four hours prior to the study. Blood glucose concentrations were determined at T=0 min (baseline) using a Glucometer. […] Blood glucose levels were determined from tail bleeds taken between 30 to 360 minutes after dose.

Substance: B29,B29′-suberoyl-(insulin)2 [Compound B, reference compound]
- blood glucose profile at low versus high dose: increased glucose lowering potency
